Reference: patent US20080241215A1, “LOCAL VASCULAR DELIVERY OF PROBUCOL ALONE OR IN COMBINATION WITH SIROLIMUS TO TREAT RESTENOSIS, VULNERABLE PLAQUE, AAA AND STROKE” (priority 2007, published 2008)
Blank lines part the entries; values can stand above or below the compound they belong to.

What was measured:
[1] = Drug concentration in liquid formulations (liquid chromatography); type: physicochemical; conditions: ethanol, Vitamin E TPGS and water formulation, ethanol less than two percent
Procedure: The concentrations of each constituent were determined by liquid chromatography and are presented as weight by volume figures.
In another exemplary embodiment, the liquid formulation of sirolimus comprises water and ethanol as co-solvents and Vitamin E TPGS as the excipient. The liquid formulation was created utilizing the following process. Two hundred milligrams of sirolimus and two grams of ethanol were added to a pre-weighed twenty milliliter scintillation vial. The vial was vortexed and sonicated until the sirolimus was completely dissolved. Approximately six hundred milligrams of Vitamin E TPGS was then added to the solution of ethanol and sirolimus. The vial was vortexed again until a clear yellowish solution was obtained. Nitrogen gas was then used to reduce the amount of ethanol in the vial to approximately two hundred twenty-nine milligrams. In a separate vial, three hundred milligrams of Vitamin E TPGS was dissolved in eleven milliliters of purified water while undergoing vortexing. The Vitamin E TPGS and water solution was then added to the first vial containing the sirolimus, Vitamin E TPGS and ethanol. The first vial was then vortexed vigorously and continuously for three minutes.
In another exemplary embodiment, a liquid formulation of CCI-779, a sirolimus analog, is prepared utilizing ethanol, Vitamin E TPGS and water. […]

[2] = tested on: human coronary artery smooth muscle cells; test: Proliferation of cultured human coronary artery smooth muscle cells; type: cell-based
Procedure: The multiple curves represent various concentrations of topotecan ranging from zero to three hundred nanomolar concentrations. […]
Curve 8702 illustrates the percent inhibition for various concentrations. In FIG. 88, the six curves 8802, 8804, 8806, 8808, 8810 and 8812 represent various concentrations of PX867 with various concentrations of sirolimus. […] More specifically, curve 8812 illustrates the percent inhibition for a 240 nM PX-867 concentration. […] This may be compared to curve 8804 which represents a 15 nM PX-867 concentration.

[3] = Porcine drug elution PK studies (in vivo release from stent coating); conditions: for drug remaining in the drug coating: after eight (8) days of implantation, single-layer sirolimus/cilostazol EVA/BMA coating with 100 μg BMA overcoat (FIG. 83)
[4] = tested on: human coronary artery smooth muscle cell; test: MTS cytotoxicity assay; type: cell-based; conditions: concentrations up to 30,000.00 nanomolar
From the text: Typically, a control is utilized to determine baseline toxicity.

[5] = In vitro release kinetics from stent coating; type: physicochemical; conditions: single-layer sirolimus/cilostazol EVA/BMA coating with 100 μg BMA overcoat (FIG. 83)
From the text: In the study, the rapamycin and Panzem® are incorporated into different layers of a polymeric coating. In this study, a Bx Velocity stent is coated with a four hundred microgram inner layer and a three hundred microgram outer layer. The inner layer comprises forty-five percent Panzem® and fifty-five percent EVA/BMA (50/50). […] There is no topcoat of just polymer in this study. Curve 7100 illustrates the release kinetics of Panzem® from the coating.
Another critical parameter for the performance of the thrombus resistance of a device coated with cilostazol is the duration of the drug release from the coating. This is of particular significance in the two weeks after device implantation. In the porcine drug elution PK studies of the dual drug eluting coating, both cilostazol and sirolius were slowly released from the coating, resulting in a sustained drug release profile. The purpose of the porcine PK study is to assess the local pharmacokinetics of a drug eluting stent at a given implantation time. Normally three stents are implanted in three different coronary arteries in a pig for a given time point and then retrieved for total drug recovery analysis. […] The stents are extracted and the total amount of drug remaining on the stents is determined by analysis utilizing HPLC (high performance liquid chromatography) for total drug amount. […]

[6] = tested on: cell viability; test: Cell viability assay; type: cell-based
From the text: The multiple curves represent various concentrations of topotecan ranging from zero to three hundred nanomolar concentrations.
The multiple curves represent various concentrations of etoposide ranging from zero to eight hundred nanomolar concentrations.

[7] = tested on: tumor cell lines; conditions: tumor cell lines (Woo et al. 2002); cited from earlier work

- concentration in the final solution (HPLC assay) [1]: 15000 µg/mL
SMILES: CO[C@H]1C[C@@H]2CC[C@@H](C)[C@@](O)(O2)C(=O)C(=O)N2CCCC[C@H]2C(=O)O[C@H]([C@H](C)C[C@@H]2CC[C@@H](OC(=O)C(C)(CO)CO)[C@H](OC)C2)CC(=O)[C@H](C)/C=C(\C)[C@@H](O)[C@@H](OC)C(=O)[C@H](C)C[C@H](C)/C=C/C=C/C=C/1C [CCI-779]

- in vivo elution relative to rapamycin ([3]; EVA/BMA basecoat with rapamycin and cladribine, 200 μg BMA topcoat, Yorkshire pigs): elutes more rapidly than rapamycin
SMILES: Nc1nc(Cl)nc2c1ncn2[C@H]1C[C@H](O)[C@@H](CO)O1 [Cladribine, 2-chlorodeoxyadenosine]
- inhibition of human coronary artery smooth muscle cell proliferation ([2]; non-synchronized cells, two percent fetal bovine serum): completely inhibits
- effect on anti-proliferative rapamycin dose response curves ([2]; non-synchronized cells, two percent fetal bovine serum, cladribine zero to nine hundred nanomolar): potentiate the anti-proliferative activity of rapamycin

SMILES: COC[C@H]1OC(=O)/C(=C\N2CCCC2)C2=C(O)C(=O)C3=C([C@H](OC(C)=O)C[C@]4(C)C(=O)CC[C@@H]34)[C@]21C [PX-867]
- inhibition of coronary artery smooth muscle cell proliferation ([2]; PX867 alone at a concentration of about 10^−6): one hundred
- combination effect with sirolimus on percent inhibition ([2]; cultured cells, PX-867 15 nM to 240 nM with various sirolimus concentrations): strong synergistic effect

SMILES: COc1cc2c(cc1O)CC[C@@H]1[C@@H]2CC[C@]2(C)[C@@H](O)CC[C@@H]12 [Panzem®, 2-methoxyestradiol]
- anti-proliferative activity ([2]; synchronized cells, two percent fetal bovine serum): extremely effective inhibitor
- effect on percent inhibition by rapamycin ([2]; synchronized cells, two percent fetal bovine serum, Panzem zero to 100 micromolar): increases the percent of inhibition of rapamycin alone
- cell survival (MTS assay) [4]: do not reduce human coronary artery smooth muscle cell survival

SMILES: O=C1CCc2cc(OCCCCc3nnnn3C3CCCCC3)ccc2N1 [cilostazol, 6[4-(1-cyclohexyl-1H-tetrazol-5-yl)-butoxy]-3,4-dihydro-2-(1H)-quinolinone]
- drug remaining in the drug coating [3]: ~80%
- in vitro drug release [5]: ~35%

SMILES: COc1cc([C@@H]2c3cc4c(cc3[C@@H](O[C@@H]3O[C@@H]5CO[C@@H](C)O[C@H]5[C@H](O)[C@H]3O)[C@H]3COC(=O)[C@H]23)OCO4)cc(OC)c1O [etoposide]
- effect on anti-proliferative rapamycin dose response curves ([2]; non-synchronized cells, two percent fetal bovine serum, etoposide zero to eight hundred nanomolar): potentiate the anti-proliferative activity of rapamycin
- cytotoxicity in cell viability assay ([6]; concentrations up to ten micromolar): non-cytotoxic

SMILES: COc1c(C)c2c(c(O)c1C/C=C(\C)CCC(=O)O)C(=O)OC2 [mycophenolic acid]
- effect on anti-proliferative rapamycin dose response curve ([2]; non-synchronized cells, two percent fetal bovine serum, mycophenolic acid zero to one thousand nanomolar): potentiates the anti-proliferative activity of rapamycin
- in vivo elution relative to rapamycin ([3]; EVA/BMA basecoat with 180 μg rapamycin and 180 μg mycophenolic acid, BMA topcoat 0-200 μg): elutes more completely over a shorter duration than the rapamycin

- drug remaining in the drug coating [3]: ~80%
SMILES: CO[C@H]1C[C@@H]2CC[C@@H](C)[C@@](O)(O2)C(=O)C(=O)N2CCCC[C@H]2C(=O)O[C@H]([C@H](C)C[C@@H]2CC[C@@H](O)[C@H](OC)C2)CC(=O)[C@H](C)/C=C(\C)[C@@H](O)[C@@H](OC)C(=O)[C@H](C)C[C@H](C)/C=C/C=C/C=C/1C [rapamycin]

SMILES: CC[C@@]1(O)C(=O)OCc2c1cc1n(c2=O)Cc2cc3c(CN(C)C)c(O)ccc3nc2-1 [topotecan]
- effect on anti-proliferative rapamycin dose response curves ([2]; synchronized cells, two percent fetal bovine serum, topotecan zero to three hundred nanomolar): potentiate the anti-proliferative activity of rapamycin
- cytotoxicity in cell viability assay ([6]; concentrations up to one micromolar): non-cytotoxic

SMILES: CC(/C=C/C(=O)NO)=C\[C@@H](C)C(=O)c1ccc(N(C)C)cc1 [trichostatin A]
- inhibition of human coronary artery smooth muscle cell proliferation ([2]; in vitro cell culture studies): completely inhibit
- IC50 ([2]; in vitro cell culture studies, read-out: anti-proliferative IC50): ~6 nM
- anti-proliferative IC50's [7]: low nM range
